Measurements reported in patent US10736829B2, “Use of certain hydroxybenzoic acid amides for masking unpleasant taste impressions” (SYMRISE AG, priority 2015, dated 2020).

Columns and labels:
Format in all cases: in vivo
[1] = Masking of the bitter taste of peptides, panel of experts (n=15), randomized duo-tests: Tyr-Pro-Phe-Pro; conditions: for Bitter taste peptide solution + 100 ppm compound: Tyr-Pro-Phe-Pro 0.1% (w/v) in water, scale 0 to 10; for Reduction of bitterness (%): Tyr-Pro-Phe-Pro 0.1% (w/v), 100 ppm compound, negative = less bitter
Protocol: (§1) The masking effect of 2,4-Dihydroxy-N-[(4-hydroxy-3-methoxy-phenyl)methyl]benzamide (compound 1) and N-[(4-hydroxy-3-methoxy-phenyl)methyl]-2,4-dimethoxy-benzamide (compound 5) on the bitter taste of peptides was examined in a panel of experts (n=15) in randomized duo-tests. Therefore, solutions of bitter peptides in water with or without the addition of the exemplary substances were tasted and the perceived bitter taste was evaluated on a scale from 0 (not bitter) to 10 (extremely bitter).

[2] = Masking of the bitter taste of peptides, panel of experts (n=15), randomized duo-tests: Trp-Trp-Trp; conditions: for Bitter taste peptide solution + 100 ppm compound: Trp-Trp-Trp 0.01% (w/v) in water, scale 0 to 10; for Reduction of bitterness (%): Trp-Trp-Trp 0.01% (w/v), 100 ppm compound, negative = less bitter
Protocol: as §1

[3] = Masking of the bitter taste of peptides; conditions: 100 ppm; compound 1: plurality of peptides, except Leu-Trp and Glu-Leu-Leu
Protocol: as §1

[4] = Masking of the bitter taste of peptides, panel of experts (n=15), randomized duo-tests: Glu-Leu-Leu (comparative example); conditions: for Reduction of bitterness (%): Glu-Leu-Leu 0.2% (w/v) (comparative peptide), 100 ppm compound, negative = less bitter; for Bitter taste peptide solution + 100 ppm compound: Glu-Leu-Leu 0.2% (w/v) in water (comparative peptide), scale 0 to 10
Protocol: as §1

[5] = Masking of the bitterness of a mixture of bitter amino acids, panel of experts (n=13), randomized duo-test with nose clip; conditions: 100 ppm sample; for Reduction of bitterness in % compared to the mixture of amino acids: negative = less bitter, positive = more bitter; for Bitter taste amino acid mixture + sample: scale 0 [not bitter] to 10 [extremely bitter], n=13
Protocol: The masking effect of hydroxybenzoic acid amides (compounds 1-4) to be preferably used according to the invention as well as a comparative substance (compound 5) on a mixture of bitter amino acids (2 g/l L-Isoleucine; 3.5 g/l L-Leucine; 1 g/l L-Phenylalanine; 0.7 g/l L-Tryptophan in water) was evaluated by an panel of experts (n=13) (Evaluation 0 [not bitter] up to 10 [extremely bitter]). The tasting was performed with a nose clip, to exclude olfactory influences, and in a randomized duo-test. The bitterness of the mixture of amino acids was evaluated by the panel by 4.98±0,31 on a scale from 0 to 10.

[6] = Masking of the bitter taste of peptides, panel of experts (n=15), randomized duo-tests: Arg-Pro; conditions: for Bitter taste peptide solution + 100 ppm compound: Arg-Pro 0.1% (w/v) in water, scale 0 (not bitter) to 10 (extremely bitter); for Reduction of bitterness (%): Arg-Pro 0.1% (w/v), 100 ppm compound, negative = less bitter
Protocol: as §1

[7] = Masking of the bitter taste of peptides, panel of experts (n=15), randomized duo-tests: Leu-Trp (comparative example); conditions: for Reduction of bitterness (%): Leu-Trp 0.2% (w/v) (comparative peptide), 100 ppm compound, negative = less bitter; for Bitter taste peptide solution + 100 ppm compound: Leu-Trp 0.2% (w/v) in water (comparative peptide), scale 0 to 10
Protocol: as §1

[8] = Masking of the bitter taste of whey protein hydrolysate solution, panel of experts (n=8), randomized duo-tests; conditions: base 3% (w/v) whey protein hydrolysate in water; 100 ppm compound 1; aroma 1.6% (w/v) in the combination
Protocol: The bitter masking effect of 2,4-dihydroxy-N-[(4-hydroxy-3-methoxy-phenyl)methyl]benzamide (compound 1) on the bitter taste of whey protein hydrolysate was tested in a panel of experts [n=8] for a solution of 3% (w/v) of a commercially available whey protein hydrolysate (BioZate 3 of the company Davisco) in randomized duo-tests. The perceived bitter taste was evaluated on a scale from 0 [not bitter] to 10 [extremely bitter]. For comparison, a combination of compound 1 with a usual bitter masking aroma was tested, to examine possible additive effects.

Row | Compound | Bitter taste peptide solution + 100 ppm compound [1] | Reduction of bitterness (%) [1] | Bitter taste peptide solution + 100 ppm compound [2] | Reduction of bitterness (%) [2] | Effect on the bitterness of the peptides (in words) [3] | Reduction of bitterness (%) [4] | Bitter taste peptide solution + 100 ppm compound [4] | Reduction of bitterness in % compared to the mixture of amino acids [5] | Bitter taste amino acid mixture + sample [5] | Bitter taste peptide solution + 100 ppm compound [6] | Reduction of bitterness (%) [6] | Reduction of bitterness (%) [7] | Bitter taste peptide solution + 100 ppm compound [7] | Reduction of the bitter taste [%] [8]
1 | COc1cc(CNC(=O)c2ccc(O)cc2O)ccc1O [compound 1, 2,4-Dihydroxy-N-[(4-hydroxy-3-methoxy-phenyl)methyl]benzamide] | 3.43 | −23.3% | 5.35 | −17.4% | clear reduction of the bitterness | −3.77% | 5.1 | −25.9% | 3.90 | 1.47 | −20.9% | −4% | 6.5 | −24.5%
2 | COc1cc(Cn2c(=O)oc3cc(O)cc(O)c3c2=O)ccc1O [compound 2, 5,7-Dihydroxy-3-[(4-hydroxy-3-methoxy-phenyl)methyl]-1,3-benzoxazin-2,4-dione] | – | – | – | – | – | – | – | −30.3% | 3.20 | – | – | – | – | –
3 | COc1cc(CNC(=O)c2ccc(O)cc2)ccc1O [compound 3, 4-Hydroxy-N-[(4-hydroxy-3-methoxy-phenyl)methyl]benzamide] | – | – | – | – | – | – | – | −14.1% | 4.11 | – | – | – | – | –
4 | COc1cc(CNC(=O)c2ccccc2O)ccc1O [compound 4, 2-Hydroxy-N-[(4-hydroxy-3-methoxy-phenyl)methyl]benzamide] | – | – | – | – | – | – | – | −7.7% | 4.74 | – | – | – | – | –
5 | COc1ccc(C(=O)NCc2ccc(O)c(OC)c2)c(OC)c1 [compound 5, N-[(4-hydroxy-3-methoxy-phenyl)methyl]-2,4-dimethoxy-benzamide, reference compound] | 4.68 | 4.46% | 6.40 | −1.08% | not able to achieve a reduction of the bitterness | 5.66% | 5.6 | 22.8% | 6.86 | 2.05 | 10.81% | 4.41% | 7.1 | –
